According to patent publication US20110212950A1, “4,4-DISUBSTITUTED PIPERIDINES” (NOVARTIS AG, priority 2007, published 2011):

These compounds were tested against T1, renin (Homo sapiens, UniProt P00797) (assay: in vitro test of Nussberger et al.: formation of angiotensin I in human plasma (radioimmunoassay)). Details: inhibition of formation of angiotensin I in human plasma.
T1 construct: This test measures the formation of angiotensin I in human plasma; from tissue; host or cells: human plasma
T1 sequence (P00797 67-406): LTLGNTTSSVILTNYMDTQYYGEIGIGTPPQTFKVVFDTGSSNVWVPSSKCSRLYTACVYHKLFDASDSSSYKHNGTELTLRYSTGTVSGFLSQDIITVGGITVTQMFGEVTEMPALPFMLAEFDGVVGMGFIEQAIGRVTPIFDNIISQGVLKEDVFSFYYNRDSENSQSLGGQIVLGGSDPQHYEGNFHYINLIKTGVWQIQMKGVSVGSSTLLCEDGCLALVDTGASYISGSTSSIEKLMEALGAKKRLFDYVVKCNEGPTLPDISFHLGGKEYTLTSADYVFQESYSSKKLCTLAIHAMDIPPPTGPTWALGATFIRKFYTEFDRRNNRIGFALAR
Type: biochemical
Description: The effect of renin inhibitors is detected inter alia experimentally by means of in vitro tests where the reduction in the formation of angiotensin I is measured in various systems (human plasma, purified human renin together with synthetic or natural renin substrate). The following in vitro test of Nussberger et al. (1987) J. Cardiovascular Pharmacol., Vol. 9, pp. 39-44, is used inter alia. This test measures the formation of angiotensin I in human plasma. The amount of angiotensin I formed is determined in a subsequent radioimmunoassay. The effect of inhibitors on the formation of angiotensin I is tested in this system by adding various concentrations of these substances. The IC50 is defined as the concentration of the particular inhibitor which reduces the formation of angiotensin I by 50%. The compounds of the present invention show inhibitory effects in the in vitro systems at minimal concentrations of about 10^−6 to about 10^−10 mol/I.
`COCCCN1CCOc2ccc(CO[C@H]3CNCC[C@]3(O)c3ccc(COCCOC)cc3)cc21` [Example 361, (3S,4S)-4-[4-(2-Methoxy-ethoxymethyl)-phenyl]-3-[4-(3-methoxy-propyl)-3,4-dihydro-2H-benzo[1,4]oxazin-6-ylmethoxy]-piperidin-4-ol] was tested, and the IC50 was 40.4 nM. For `COCCCN1CCOc2ccc(CO[C@H]3CNCC[C@]3(O)c3ccc(COC[C@@H](C)Cn4cnnn4)cc3)cc21` [Example 371, (3S,4S)-3-[4-(3-Methoxy-propyl)-3,4-dihydro-2H-benzo[1,4]oxazin-6-ylmethoxy]-4-[4-((S)-2-methyl-3-tetrazol-1-yl-propoxymethyl)-phenyl]-piperidin-4-ol], the IC50 was 123 nM. `CCO[C@H](C)COCc1ccc([C@@]2(O)CCNC[C@@H]2OCc2ccc3c(c2)N(CCCOC)CCO3)c(OCCOC)c1` [Example 375, (3S,4S)-4-[4-((R)-2-Ethoxy-propoxymethyl)-2-(2-methoxy-ethoxy)-phenyl]-3-[4-(3-methoxy-propyl)-3,4-dihydro-2H-benzo[1.4]oxazin-6-ylmethoxy]-piperidin-4-ol] gave an IC50 of 84.3 nM. In the case of `CCO[C@H](C)COCc1ccc([C@@]2(O)CCNC[C@@H]2OCc2ccc3c(c2)N(CCCOC)CCO3)c(CCOC)c1` [Example 378, (3S,4S)-4-[4-((R)-2-Ethoxy-propoxymethyl)-2-(2-methoxy-ethyl)-phenyl]-3-[4-(3-methoxy-propyl)-3,4-dihydro-2H-benzo[1,4]oxazin-6-ylmethoxy]-piperidin-4-ol], the IC50 is reported as 9.6 nM.
